The values below come from US20080085889A1, “Amidomethyl-Substituted 1-(Carboxyalkyl) Cyclopentyl-Carbonylamino-Benzazepine-N-Acetic Acid Compounds, Process and Intermediate Products for Their Preparation and Pharmaceutical Compositions Containing Them” (SOLVAY PHARMACEUTICALS GmbH, priority 2003, published 2008).

Experiment [1] addresses T1, soluble, human recombinant NEP (Homo sapiens, UniProt P08473).
T1 construct: soluble, human recombinant NEP; purchased Prof; Crine, University of Montreal, Canada
Description: In-vitro investigation of the NEP inhibitory action (fluorescence-quenched Big-ET-1 analogue, HPLC). It counts as biochemical. In short, it runs like this:
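Enzyme preincubated with test substance 15 min at 37° C, then incubated with fluorescence-quenched Mca peptide substrate 60 min at 37° C and stopped by heating to 95° C. Cleaved and intact peptide separated by reversed-phase HPLC; unquenched Mca peak area (ex 328/em 393 nm) gave % inhibition versus no-compound control, duplicates, IC50 derived.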

Experiment [2] concerns maximal SAP response to Big-ET. Description: In vivo i.v. potency (ID50) to inhibit maximal SAP response to Big-ET in anesthetized rats. Further details: species or system Rats (Sprague-Dawley). As to conditions: Rattus norvegicus, iv, dose at which the pressor effect of Big-ET was suppressed by 50%. As for the experimental part: Rats (Sprague-Dawley, CRLD=Charles River) were anaesthetised with 1 ml/kg Rompun/Ketavet 1:1. A pressure transducer (Statham) was inserted into the carotid artery to measure blood pressure.
For intravenous testing, one jugular vein was cannulated for administering the substance, and the other for administering Big-ET-1. […] Five minutes later, 0.5 nmol/kg Big-ET-1 was infused over a period of one minute. SAP, DAP, and heart rate were measured before administration of the substance, then before administration of Big-ET, and subsequently every five minutes after Big-ET administration over a period of 30 minutes using the pressure transducer in known manner. The maximum Big-ET-induced increase in blood pressure was calculated from the measured values as the difference between the value measured at the moment of maximum development of the Big-ET action (typically after 5 min) and the value measured before Big-ET infusion. The dose at which the pressor effect of Big-ET was suppressed by 50% (ID50) was estimated from the inhibitory effects observed over the range of dosages tested (n>5 rats for each dose).
The intravenous potency of the test compounds of Formula I (given as ID50 values) to inhibit the maximal SAP response to Big ET in anesthetized rats is set forth in the following Table 3b: […]

T1 sequence (P08473 52-750 limits assumed): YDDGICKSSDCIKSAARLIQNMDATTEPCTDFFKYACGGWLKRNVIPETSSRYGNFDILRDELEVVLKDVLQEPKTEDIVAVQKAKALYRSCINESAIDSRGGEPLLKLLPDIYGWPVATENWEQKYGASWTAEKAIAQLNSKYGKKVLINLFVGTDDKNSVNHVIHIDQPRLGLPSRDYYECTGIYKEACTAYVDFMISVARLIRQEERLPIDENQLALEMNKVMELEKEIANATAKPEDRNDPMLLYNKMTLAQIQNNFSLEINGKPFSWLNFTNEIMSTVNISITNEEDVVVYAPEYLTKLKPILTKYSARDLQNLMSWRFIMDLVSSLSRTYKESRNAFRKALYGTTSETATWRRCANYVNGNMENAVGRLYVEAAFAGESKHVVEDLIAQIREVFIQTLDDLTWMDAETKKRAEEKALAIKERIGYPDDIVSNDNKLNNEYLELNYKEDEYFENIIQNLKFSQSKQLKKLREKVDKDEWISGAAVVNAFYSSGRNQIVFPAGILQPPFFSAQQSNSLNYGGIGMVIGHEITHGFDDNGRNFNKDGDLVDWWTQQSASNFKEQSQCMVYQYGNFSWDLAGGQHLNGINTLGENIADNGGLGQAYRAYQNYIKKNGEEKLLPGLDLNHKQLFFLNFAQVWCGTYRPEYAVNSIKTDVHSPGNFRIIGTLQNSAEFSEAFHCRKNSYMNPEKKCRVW

As to `CCN(CCCCN)C(=O)CC(CC1(C(=O)NC2CCc3ccccc3N(CC(=O)O)C2=O)CCCC1)C(=O)O` [Example 81, (2″rel1″)-4-[(4-aminobutyl)(ethyl)amino]-2-{[1-({[(3S)-1-(carboxymethyl)-2-oxo-2,3,4,5-tetrahydro-1H-1-benzazepin-3-yl]amino}carbonyl)cyclopentyl]methyl}-4-oxobutanoic acid], the IC50 in experiment [1] turned out to be 4 nM. Besides, it took a dose of 0.05 µmol/kg to reach the 50% effect level in experiment [2] (ED50).
On the same counts, the results for `CN(C)CCCN(C)C(=O)CC(CC1(C(=O)NC2CCc3ccccc3N(CC(=O)O)C2=O)CCCC1)C(=O)O` (centres unmarked) [Example 64, 2-[(1-{[1-(carboxymethyl)-2-oxo-2,3,4,5-tetrahydro-1H-1-benzazepin-3-yl]carbamoyl}cyclopentyl)methyl]-4-{[3-(dimethylamino)propyl](methyl)amino}-4-oxobutanoic acid] are 9 nM and 0.2 µmol/kg.
`CC(C)NC(=O)CC(CC1(C(=O)N[C@H]2CCc3ccccc3N(CC(=O)O)C2=O)CCCC1)C(=O)O` (stereo in doubt) [Example 3, (2″rel1″)-2-{[(3S)-1-({[1-(carboxymethyl)-2-oxo-2,3,4,5-tetrahydro-1H-1-benzazepin-3-yl]amino}-carbonyl)cyclopentyl]methyl}-4-(isopropylamino)-4-oxobutyric acid]: in experiment [1], the IC50 worked out at 17.9 nM.
